Source: patent publication US6737383B1, “Herbicidal oxadiazolidines” (priority 1999, dated 2004)

How the values were obtained:
wheat = test: Test B pre/postemergence wheat; format: in vivo, Triticum aestivum; settings: for Wheat plant response rating: scale of 0 to 10 where 0 is no effect and 10 is complete control
Outline: (§1)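 Herbicidal effect was estimated by eye on a ten-point control scale after plants spent twelve to sixteen days in a greenhouse following soil or foliar treatment. Foliar sprays targeted plants at one to four leaves; all doses were formulated in a non-phytotoxic solvent with surfactant.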

smallflower flatsedge = test: Test B flood test smallflower flatsedge; format: in vivo, Cyperus difformis
Outline: (§2)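 Read-out is a visual response score from 0 (no effect) to 10 (complete control), assigned by comparison with untreated controls. Treatment was applied at the 2-leaf stage, and plants stayed in the greenhouse for twelve to sixteen days before scoring.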

wild oat = test: Test B pre/postemergence wild oat; format: in vivo, Avena fatua; settings: for Wild oats plant response rating: scale of 0 to 10 where 0 is no effect and 10 is complete control
Outline: as §1

rape = test: Test B pre/postemergence rape; format: in vivo, Brassica napus; settings: for Rape plant response rating: scale of 0 to 10 where 0 is no effect and 10 is complete control
Outline: as §1

duck salad = test: Test B flood test duck salad; format: in vivo, Heteranthera limosa
Outline: as §2

purple nutsedge = test: Test B pre/postemergence purple nutsedge; format: in vivo, Cyperus rotundus; settings: for Nutsedge plant response rating: scale of 0 to 10 where 0 is no effect and 10 is complete control
Outline: as §1

corn = test: Test B pre/postemergence corn; format: in vivo, Zea mays; settings: for Corn plant response rating: scale of 0 to 10 where 0 is no effect and 10 is complete control
Outline: as §1

rice = test: Test B flood test rice; format: in vivo, Oryza sativa
Outline: as §2

cocklebur = test: Test B pre/postemergence cocklebur; format: in vivo, Xanthium strumarium; settings: for Cocklebur plant response rating: scale of 0 to 10 where 0 is no effect and 10 is complete control
Outline: as §1

blackgrass = test: Test B pre/postemergence blackgrass; format: in vivo, Alopecurus myosuroides; settings: for Blackgrass plant response rating: scale of 0 to 10 where 0 is no effect and 10 is complete control
Outline: as §1

velvetleaf = test: Test B pre/postemergence velvetleaf; format: in vivo, Abutilon theophrasti; settings: for Velvetleaf plant response rating: scale of 0 to 10 where 0 is no effect and 10 is complete control
Outline: as §1

surinam grass = test: Test B pre/postemergence surinam grass; format: in vivo, Brachiaria decumbens; settings: for B. signalgrass plant response rating: scale of 0 to 10 where 0 is no effect and 10 is complete control
Outline: as §1

bamyardgrass = test: Test B flood test barnyardgrass; format: in vivo, Echinochloa crus-galli
Outline: as §2

pigweed = test: Test B pre/postemergence pigweed; format: in vivo, Amaranthus retroflexus; settings: for Redroot pigweed plant response rating: scale of 0 to 10 where 0 is no effect and 10 is complete control
Outline: as §1

morningglory = test: Test B pre/postemergence morningglory; format: in vivo, Ipomoea hederacea; settings: for Morningglory plant response rating: scale of 0 to 10 where 0 is no effect and 10 is complete control
Outline: as §1

[1] = Postemergence, Rate 125 g/ha, scale 0 to 10, 0 is no effect, 10 is complete control
[2] = Postemergence, Rate 250 g/ha, scale 0 to 10, 0 is no effect, 10 is complete control
[3] = Preemergence, Rate 62 g/ha, scale 0 to 10 (0 no effect, 10 complete control)
[4] = Rate 62 g/ha, flood test species, Pre-emergence, visual evaluation after twelve to sixteen days
[5] = Rate 125 g/ha, under heading Pre-emergence, flood test species, visual evaluation after twelve to sixteen days
[6] = Rate 250 g/ha, Pre-emergence, flood-test species, scale 0 to 10, 0 is no effect, 10 is complete control
[7] = Rate 500 g/ha, Pre-emergence, flood test species, scale 0 to 10 (0 no effect, 10 complete control)
[8] = Rate 500 g/ha, Postemergence, scale 0 to 10, 0 no effect, 10 complete control

CC1CC1n1c(=O)on(C(=O)N(c2ccc(F)cc2)C(C)C)c1=O (stereo not shown) [Compound 371]
Plant response rating, Wheat (wheat; [1]): 0
Plant response rating, Wheat (wheat; [2]): 0
Plant response rating, Wheat (wheat; [3]): 0
Wheat plant response rating (0 to 10 scale) (wheat; Preemergence, Rate 125 g/ha): 0
Wheat plant response rating (wheat; Preemergence, Rate 250 g/ha): 2
Wheat plant response rating (wheat; Preemergence, Rate 500 g/ha): 4
Wheat plant response rating (wheat; Rate 62 g/ha, Postemergence): 0
Plant response rating, S. Flatsedge (0 to 10 scale, 0 is no effect, 10 is complete control) (smallflower flatsedge; [4]): 0
S. Flatsedge plant response rating (0 to 10 scale, 0 is no effect, 10 is complete control) (smallflower flatsedge; [5]): 0
S. Flatsedge plant response rating (smallflower flatsedge; [6]): 0
S. Flatsedge plant response rating (smallflower flatsedge; [7]): 3
Plant response rating, Wild oats (wild oat; [1]): 0
Plant response rating, Wild oats (wild oat; [2]): 3
Plant response rating, Wild oats (wild oat; [3]): 0
Wild oats plant response rating (0 to 10 scale) (wild oat; Preemergence, Rate 125 g/ha): 3
Wild oats plant response rating (wild oat; Preemergence, Rate 250 g/ha): 3
Wild oats plant response rating (wild oat; Preemergence, Rate 500 g/ha): 6
Wild oats plant response rating (wild oat; Rate 62 g/ha, Postemergence): 0
Plant response rating, Wild oats (wild oat; [8]): 4
Plant response rating, Rape (rape; [1]): 0
Plant response rating, Rape (rape; [2]): 0
Plant response rating, Rape (rape; [3]): 0
Rape plant response rating (0 to 10 scale) (rape; Preemergence, Rate 125 g/ha): 4
Rape plant response rating (rape; Preemergence, Rate 250 g/ha): 9
Rape plant response rating (rape; Preemergence, Rate 500 g/ha): 10
Rape plant response rating (rape; Rate 62 g/ha, Postemergence): 0
Plant response rating, Rape (rape; [8]): 0
Plant response rating, Ducksalad (0 to 10 scale, 0 is no effect, 10 is complete control) (duck salad; [4]): 0
Ducksalad plant response rating (0 to 10 scale, 0 is no effect, 10 is complete control) (duck salad; [5]): 0
Ducksalad plant response rating (duck salad; [6]): 0
Ducksalad plant response rating (duck salad; [7]): 2
Plant response rating, Nutsedge (purple nutsedge; [1]): 0
Plant response rating, Nutsedge (purple nutsedge; [2]): 0
Plant response rating, Nutsedge (purple nutsedge; [3]): 0
Nutsedge plant response rating (0 to 10 scale) (purple nutsedge; Preemergence, Rate 125 g/ha): 0
Nutsedge plant response rating (purple nutsedge; Preemergence, Rate 250 g/ha): 5
Nutsedge plant response rating (purple nutsedge; Preemergence, Rate 500 g/ha): 9
Nutsedge plant response rating (purple nutsedge; Rate 62 g/ha, Postemergence): 0
Plant response rating, Nutsedge (purple nutsedge; [8]): 0
Plant response rating, Corn (corn; [1]): 0
Plant response rating, Corn (corn; [2]): 0
Plant response rating, Corn (corn; [3]): 0
Corn plant response rating (0 to 10 scale) (corn; Preemergence, Rate 125 g/ha): 0
Corn plant response rating (corn; Preemergence, Rate 250 g/ha): 2
Corn plant response rating (corn; Preemergence, Rate 500 g/ha): 7
Corn plant response rating (corn; Rate 62 g/ha, Postemergence): 0
Plant response rating, Corn (corn; [8]): 1
Plant response rating, Rice (0 to 10 scale, 0 is no effect, 10 is complete control) (rice; [4]): 0
Rice plant response rating (0 to 10 scale, 0 is no effect, 10 is complete control) (rice; [5]): 0
Rice plant response rating (rice; [6]): 0
Rice plant response rating (rice; [7]): 5
Plant response rating, Cocklebur (cocklebur; [1]): 0
Plant response rating, Cocklebur (cocklebur; [2]): 0
Plant response rating, Cocklebur (cocklebur; [3]): 0
Cocklebur plant response rating (0 to 10 scale) (cocklebur; Preemergence, Rate 125 g/ha): 0
Cocklebur plant response rating (cocklebur; Preemergence, Rate 250 g/ha): 0
Cocklebur plant response rating (cocklebur; Preemergence, Rate 500 g/ha): 0
Cocklebur plant response rating (cocklebur; Rate 62 g/ha, Postemergence): 0
Plant response rating, Cocklebur (cocklebur; [8]): 0
Plant response rating, Blackgrass (blackgrass; [1]): 2
Plant response rating, Blackgrass (blackgrass; [2]): 6
Plant response rating, Blackgrass (blackgrass; [3]): 5
Blackgrass plant response rating (0 to 10 scale) (blackgrass; Preemergence, Rate 125 g/ha): 9
Blackgrass plant response rating (blackgrass; Preemergence, Rate 250 g/ha): 10
Blackgrass plant response rating (blackgrass; Preemergence, Rate 500 g/ha): 10
Blackgrass plant response rating (blackgrass; Rate 62 g/ha, Postemergence): 2
Plant response rating, Blackgrass (blackgrass; [8]): 8
Plant response rating, Velvetleaf (velvetleaf; [1]): 0
Plant response rating, Velvetleaf (velvetleaf; [2]): 2
Plant response rating, Velvetleaf (velvetleaf; [3]): 0
Velvetleaf plant response rating (0 to 10 scale) (velvetleaf; Preemergence, Rate 125 g/ha): 4
Velvetleaf plant response rating (velvetleaf; Preemergence, Rate 250 g/ha): 5
Velvetleaf plant response rating (velvetleaf; Preemergence, Rate 500 g/ha): 6
Velvetleaf plant response rating (velvetleaf; Rate 62 g/ha, Postemergence): 0
Plant response rating, Velvetleaf (velvetleaf; [8]): 3
Plant response rating, B. signalgrass (surinam grass; [1]): 0
Plant response rating, B. signalgrass (surinam grass; [2]): 3
Plant response rating, B. signalgrass (surinam grass; [3]): 0
B. signalgrass plant response rating (0 to 10 scale, 0 is no effect, 10 is complete control) (surinam grass; Preemergence, Rate 125 g/ha): 2
B. signalgrass plant response rating (surinam grass; Preemergence, Rate 250 g/ha): 2
B. signalgrass plant response rating (surinam grass; Preemergence, Rate 500 g/ha): 4
B. signalgrass plant response rating (surinam grass; Rate 62 g/ha, Postemergence): 0
Plant response rating, B. signalgrass (surinam grass; [8]): 6
Plant response rating, Barnyardgrass (0 to 10 scale, 0 is no effect, 10 is complete control) (bamyardgrass; [4]): 0
Barnyardgrass plant response rating (0 to 10 scale, 0 is no effect, 10 is complete control) (bamyardgrass; [5]): 0
Barnyardgrass plant response rating (bamyardgrass; [6]): 0
Barnyardgrass plant response rating (bamyardgrass; [7]): 7
Plant response rating, Redroot pigweed (pigweed; [1]): 0
Plant response rating, Redroot pigweed (pigweed; [2]): 2
Plant response rating, Redroot pigweed (pigweed; [3]): 4
Redroot pigweed plant response rating (0 to 10 scale) (pigweed; Preemergence, Rate 125 g/ha): 10
Redroot pigweed plant response rating (pigweed; Preemergence, Rate 250 g/ha): 10
Redroot pigweed plant response rating (pigweed; Preemergence, Rate 500 g/ha): 10
Redroot pigweed plant response rating (pigweed; Rate 62 g/ha, Postemergence): 0
Plant response rating, Redroot pigweed (pigweed; [8]): 5
Plant response rating, Morningglory (morningglory; [1]): 7
Plant response rating, Morningglory (morningglory; [2]): 7
Plant response rating, Morningglory (morningglory; [3]): 0
Morningglory plant response rating (0 to 10 scale) (morningglory; Preemergence, Rate 125 g/ha): 0
Morningglory plant response rating (morningglory; Preemergence, Rate 250 g/ha): 0
Morningglory plant response rating (morningglory; Preemergence, Rate 500 g/ha): 3
Morningglory plant response rating (morningglory; Rate 62 g/ha, Postemergence): 7
Plant response rating, Morningglory (morningglory; [8]): 10
